Reference: patent publication US20240108739A1, “OLIGOMERIC COMPOUNDS BINDING SPECIFICALLY TO PROTEOGLYCANS” (PHI PHARMA SA, priority 2020, published 2024)
Positions of bridges follow the written chain, without caps; N, C: chain ends. Non-standard residues stand in square brackets, D forms with d. Residues, ends and D or L forms follow the SMILES beside them. Chains are numbered I, II in the order given. ξ: configuration not given here. *: point of attachment. X2 = O=C(CCCCCN1C(=O)CC(*)C1=O)NNC(=O)CCCCC1SC[C@H]2NC(=O)N[C@@H]12; ξIle = CC[C@H](C)C(N)C(=O)O; Orn = NCCC[C@H](N)C(=O)O

Experiments:
Format in all cases: cell-based
[1] = tested on: CHO-pgsA-745 cells (GAG-deficient mutant); test: Flow cytometry binding of biotinylated compounds to CHO cells (Example 3); conditions: 30 min at 4 °C, streptavidin-680RD fluorescence; FIG. 3B
Protocol: (§1) Cell lines in exponential growth phase were cultured in complete culture medium with 10% FBS and grown in 75 cm^2 cell culture flasks. On the day of the experiment, cells were harvested and transferred in V-bottom culture plates, washed with PBS 1× supplemented with BSA 3% and then incubated with (51-hS)2KC-Mal-Biotin, (51-hS)2KS-(51-hS)KC-Mal-Biotin, [(51-hS)2KS]2KK(Biotin) and VAR2-Biotin for 30 min at 4° C. in PBS 1× supplemented with BSA 3% (and eventually PEG600 2%) at various dilutions (serial dilutions).
After the incubation, cells were washed in PBS 1× supplemented with BSA 3%. For visualization, cells were incubated for 15 min at 4° C. with streptavidin coupled to 680RD fluorochrome. After the incubation, cells were washed in PBS 1× supplemented with 3% BSA and then incubated for at least 15 min at 4° C. with 4′,6-diamidino-2-phenylindole (DAPI) (Thermo Fisher Scientific) in order to exclude dead cells. Samples were directly applied to a flow cytometer. Data generated on the flow cytometer was analyzed using Flowjo™ 10.6.0.

HL-60 (leukemia) cells = test: Flow cytometry binding to tumor cell lines (Example 5); conditions: FIG. 6
Protocol: as §1, with “Tumor cell” for “Cell”, “the compounds” for “(51-hS)2KC-Mal-Biotin, (51-hS)2KS-(51-hS)KC-Mal-Biotin, [(51-hS)2KS]2KK(Biotin) and VAR2-Biotin”, “and” for “(and eventually”, “2%” for “2%)”
(§2) After the incubation, cells were washed in PBS 1× supplemented with BSA 3%. For biotinylated compounds, cells are then incubated for 15 min at 4° C. with streptavidin coupled to 680RD fluorochrome.
(§3) After the incubation, cells were washed in PBS 1× supplemented with 3% BSA and then incubated for at least 15 min at 4° C. with DAPI (Thermo Fisher Scientific) in order to exclude dead cells and samples are directly applied to a flow cytometer. Data generated using the flow cytometer was analyzed using Flowjo™10.6.0 Fluorescence geometric mean (via the use of streptavidin-680RD) of samples was standardized by subtracting the fluorescence geometric mean of the negative control (no compound) and the addition of 1. Experimental design is outlined in Table 9.

U937 (lymphoma) cells = test: as above; conditions: FIG. 6
Protocol: as §1, with “Tumor cell” for “Cell”, “the compounds” for “(51-hS)2KC-Mal-Biotin, (51-hS)2KS-(51-hS)KC-Mal-Biotin, [(51-hS)2KS]2KK(Biotin) and VAR2-Biotin”, “and” for “(and eventually”, “2%” for “2%)”
as §2, §3

In the case of `CC[C@H](C)C(NC(=O)[C@H](CCCNC(=N)N)NC(=O)[C@H](NC(=O)[C@H](Cc1ccccc1)NC(=O)[C@H](Cc1ccc(O)cc1)NC(=O)[C@H](CCCNC(=N)N)NC(C)=O)C(C)C)C(=O)N[C@@H](CCCN)C(=O)N[C@@H](Cc1ccc(O)cc1)C(=O)N[C@@H](CCCNC(=N)N)C(=O)N[C@H](Cc1c[nH]cn1)C(=O)N[C@@H](CO)C(=O)N[C@@H](CCCCNC(=O)[C@H](CO)NC(=O)[C@@H](Cc1c[nH]cn1)NC(=O)[C@H](CCCNC(=N)N)NC(=O)[C@H](Cc1ccc(O)cc1)NC(=O)[C@H](CCCN)NC(=O)[C@@H](NC(=O)[C@H](CCCNC(=N)N)NC(=O)[C@H](NC(=O)[C@H](Cc1ccccc1)NC(=O)[C@H](Cc1ccc(O)cc1)NC(=O)[C@H](CCCNC(=N)N)NC(C)=O)C(C)C)[C@@H](C)CC)C(=O)N[C@@H](CSC1CC(=O)N(CCCCCC(=O)NNC(=O)CCCCC2SC[C@H]3NC(=O)N[C@@H]23)C1=O)C(N)=O` (stereo partly drawn) [(51-hS)2KC-Mal-Biotin] (I: Ac-RYF[dV]R[ξIle][Orn]YR[dH]SKC(X2)-NH2 / II: Ac-RYF[dV]RI[Orn]YR[dH]S; amide I:12-II:C), the “reduction of fluorescence on CHO-pgsA-745 as compared with fluorescence on CHO-K1 cells” value [1] is reported as 4.6 fold, the “reduction of binding on HL-60 cells as compared with (51-hS)2KS-(51-hS)KC-Mal-Biotin” value (HL-60 (leukemia) cells) is reported as “at least 10 ×” and the “reduction of binding on U937 cells as compared with (51-hS)2KS-(51-hS)KC-Mal-Biotin” value (U937 (lymphoma) cells) is reported as “at least 10 ×”.
